The values below are quoted from earlier work in US9050307B2, “Method for the preparation of a levothyroxine solution” (EMP Pharma GmbH, priority 2011, dated 2015).

SMILES strings stand for the structures.

Consider `N[C@@H](Cc1cc(I)c(Oc2cc(I)c(O)c(I)c2)c(I)c1)C(=O)[O-].[Na+]` [Levothyroxine sodium, Sodium (2S)-2-amino-3-[4-(4-hydroxy-3,5-diiodophenoxy)-3,5-diiodophenyl]propanoate], for which the “Solubility in ethanol (96 percent)” value (ethanol (96 percent)) is “slightly soluble”. The Solubility in water entry (water) is on record as “very slightly soluble”.
